Experimental data as given in ChEMBL document CHEMBL5352429, “Designed symmetrical β-hairpin peptides for treating multidrug-resistant salmonella typhimurium infections” (Eur J Med Chem, 2022).
In brackets after ≈: the same amount, converted by molar mass. Activity calls are given as the source filed them. No cut-off for these calls is given here. Peptide text beside a SMILES is read from it.

How the values were obtained:
Staphylococcus aureus [1] = test: Antibacterial activity against Staphylococcus aureus ATCC 29213 incubated overnight by standard microtiter dilution method; assay type: functional
Staphylococcus aureus [2] = test: Antibacterial activity against methicillin-resistant Staphylococcus aureus ATCC 43300 incubated overnight by standard microtiter dilution method; assay type: functional
[3] = tested on: Staphylococcus epidermidis; test: Antibacterial activity against methicillin-resistant Staphylococcus epidermidis ATCC 12228 incubated overnight by standard microtiter dilution method; assay type: functional
Enterococcus faecalis = test: Antibacterial activity against Enterococcus faecalis ATCC 29212 incubated overnight by standard microtiter dilution method; assay type: functional
Escherichia coli = test: Antibacterial activity against Escherichia coli O157:H7 CICC 21530 incubated overnight by standard microtiter dilution method; assay type: functional
Salmonella paratyphi = test: Antibacterial activity against Salmonella paratyphi A CICC 21501 incubated overnight by standard microtiter dilution method; assay type: functional, Salmonella enterica subsp. enterica serovar Paratyphi A; conditions: Salmonella enterica
[4] = tested on: Salmonella enterica subsp. enterica serovar Paratyphi B; test: Antibacterial activity against Salmonella paratyphi B CICC 21495 incubated overnight by standard microtiter dilution method; assay type: functional
[5] = Antibacterial activity against Salmonella paratyphi C CICC 21512 incubated overnight by standard microtiter dilution method; assay type: functional, Salmonella enterica subsp. enterica serovar Paratyphi C; conditions: Salmonella enterica
[6] = Antibacterial activity against Salmonella enterica subsp. enterica serovar Choleraesuis ATCC 13312 incubated overnight by standard microtiter dilution method; assay type: functional
[7] = Antibacterial activity against Salmonella enterica subsp. enterica serovar Choleraesuis CICC 21493 incubated overnight by standard microtiter dilution method; assay type: functional
Salmonella enteritidis = test: Antibacterial activity against Salmonella enteritidis CICC 21527 incubated overnight by standard microtiter dilution method; assay type: functional, Salmonella enterica subsp. enterica serovar Enteritidis; conditions: Salmonella enterica
[8] = Antibacterial activity against Salmonella wandsworth CICC 21504 incubated overnight by standard microtiter dilution method; assay type: functional, Salmonella enterica subsp. enterica serovar Wandsworth; conditions: Salmonella enterica
Salmonella typhimurium [9] = test: Antibacterial activity against Salmonella typhimurium CICC 21483 incubated overnight by standard microtiter dilution method; assay type: functional, Salmonella enterica subsp. enterica serovar Typhimurium; conditions: Salmonella enterica
Salmonella typhimurium [10] = test: Antibacterial activity against Salmonella typhimurium CICC 21913 incubated overnight by standard microtiter dilution method; assay type: functional, Salmonella enterica subsp. enterica serovar Typhimurium; conditions: Salmonella enterica
[11] = Antibacterial activity against Salmonella blockley CICC 21489 incubated overnight by standard microtiter dilution method; assay type: functional, Salmonella enterica subsp. enterica serovar Blockley; conditions: Salmonella enterica
[12] = Antibacterial activity against Salmonella dublin CICC 21497 incubated overnight by standard microtiter dilution method; assay type: functional, Salmonella enterica subsp. enterica serovar Dublin; conditions: Salmonella enterica
Salmonella typhimurium [13] = test: Antibacterial activity against Salmonella typhimurium DT104 ATCC 700408 incubated overnight by standard microtiter dilution method; assay type: functional, Salmonella enterica subsp. enterica serovar Typhimurium; conditions: Salmonella enterica
Candida albicans = test: Antifungal activity against Candida albicans ATCC 10231 incubated overnight by standard microtiter dilution method; assay type: functional
Erythrocyte = test: Hemolytic activity in human Red blood cells assessed as hemolysis incubated for 1 hrs by absorbance based microplate reader analysis; assay type: toxicity, cell-based
Salmonella typhimurium [14] = test: Antibacterial activity against Salmonella typhimurium DT104 in the presence of NaCl by MH broth based assay; assay type: functional, Salmonella enterica subsp. enterica serovar Typhimurium; conditions: Salmonella enterica
Salmonella typhimurium [15] = test: Antibacterial activity against Salmonella typhimurium DT104 in the presence of KCl by MH broth based assay; assay type: functional, Salmonella enterica subsp. enterica serovar Typhimurium; conditions: Salmonella enterica
Salmonella typhimurium [16] = test: Antibacterial activity against Salmonella typhimurium DT104 in the presence of NH4Cl by MH broth based assay; assay type: functional, Salmonella enterica subsp. enterica serovar Typhimurium; conditions: Salmonella enterica
Salmonella typhimurium [17] = test: Antibacterial activity against Salmonella typhimurium DT104 in the presence of CaCl2 by MH broth based assay; assay type: functional, Salmonella enterica subsp. enterica serovar Typhimurium; conditions: Salmonella enterica
Salmonella typhimurium [18] = test: Antibacterial activity against Salmonella typhimurium DT104 in the presence of MgCl2 by MH broth based assay; assay type: functional, Salmonella enterica subsp. enterica serovar Typhimurium; conditions: Salmonella enterica
Salmonella typhimurium [19] = test: Antibacterial activity against Salmonella typhimurium DT104 in the presence of FeCl3 by MH broth based assay; assay type: functional, Salmonella enterica subsp. enterica serovar Typhimurium; conditions: Salmonella enterica
Salmonella typhimurium [20] = test: Antibacterial activity against Salmonella typhimurium DT104 in the presence 25% inactivated mouse serum by MH broth based assay; assay type: functional, Salmonella enterica subsp. enterica serovar Typhimurium; conditions: Salmonella enterica
Salmonella typhimurium [21] = test: Antibacterial activity against Salmonella typhimurium DT104 in the presence 50% inactivated mouse serum by MH broth based assay; assay type: functional, Salmonella enterica subsp. enterica serovar Typhimurium; conditions: Salmonella enterica
[22] = Hemolytic activity in human Red blood cells assessed as hemolysis at 128 ug/ml incubated for 1 hrs by absorbance based microplate reader analysis relative to control; assay type: toxicity, cell-based, Erythrocyte; conditions: red blood cells (erythrocytes), at 128 µg/mL, read-out: Activity
[23] = Cytotoxicity against mouse RAW264.7 cells assessed as cell viability at 128 ug/ml incubated for 24 hrs by MTT assay; assay type: toxicity, cell-based; conditions: at 128 µg/mL, read-out: Activity
Salmonella typhimurium [24] = test: Antibacterial activity against multi-drug resistant Salmonella typhimurium DT104 assessed as inhibition of bacterial growth at 0.5 to 2 times of MIC by MH agar based serial dilution method; assay type: functional, organism-based; conditions: Salmonella enterica subsp. enterica serovar Typhimurium, time <= 120.0 min, TDE = time-dependent effect
Salmonella typhimurium [25] = test: Antibacterial activity against multi-drug resistant Salmonella typhimurium DT104 assessed as inhibition of bacterial growth measured upto 120 mins by MH agar based serial dilution method; assay type: functional, organism-based; conditions: Salmonella enterica subsp. enterica serovar Typhimurium
Lipopolysaccharide (LPS) = test: Displacement of BODIPY-TR-cadaverine from Salmonella typhimurium LPS assessed as increase in fluorescence intensity by fluorescence spectrophotometric analysis; conditions: Salmonella enterica subsp. enterica serovar Typhimurium; dose 0.25-8 µg/ml
RAW264.7 [26] = test: Inhibition of LPS-stimulated NO production in mouse RAW264.7 cells incubated for 24 hrs by Griess reagent based analysis; assay type: functional, cell-based; conditions: dose 1-128 µg/ml
RAW264.7 [27] = test: Inhibition of LPS-stimulated TNF-alpha production in mouse RAW264.7 cells at 1 to 128 ug/ml incubated for 24 hrs by ELISA analysis; assay type: functional, cell-based; conditions: dose 1-128 µg/ml
RAW264.7 [28] = test: Inhibition of LPS-stimulated IL-1beta production in mouse RAW264.7 cells at 1 to 128 ug/ml incubated for 24 hrs by ELISA analysis; assay type: functional, cell-based; conditions: dose 1-128 µg/ml
RAW264.7 [29] = test: Inhibition of LPS-stimulated IL-8 production in mouse RAW264.7 cells at 1 to 128 ug/ml incubated for 24 hrs by ELISA analysis; assay type: functional, cell-based; conditions: dose 1-128 µg/ml
Cell membrane = test: Disruption of membrane integrity in Salmonella typhimurium DT104 assessed as increase in fluorescence intensity at 0.5 to 2 times of MIC incubated for 15 mins by PI staining based flow cytometric analysis; assay type: subcellular; conditions: Salmonella enterica subsp. enterica serovar Typhimurium
Salmonella typhimurium [30] = test: Antibacterial activity against Salmonella typhimurium DT104 infected in mouse RAW264.7 cells assessed as reduction in bacterial cells at 1 times of MIC measured for 180 mins by MH agar based serial dilution method; assay type: functional, organism-based; conditions: Salmonella enterica subsp. enterica serovar Typhimurium

Compound: C[C@@H](O)[C@H](NC(=O)[C@H](CS)NC(=O)[C@H](CCCCN)NC(=O)[C@H](Cc1c[nH]c2ccccc12)NC(=O)[C@H](CCCCN)NC(=O)[C@H](Cc1c[nH]c2ccccc12)NC(=O)[C@H](CCCCN)NC(=O)[C@@H](N)Cc1c[nH]c2ccccc12)C(=O)N[C@@H](CCCCN)C(=O)N[C@@H](CO)C(=O)NCC(=O)N[C@@H](CS)C(=O)N[C@@H](CCCCN)C(=O)N[C@@H](Cc1c[nH]c2ccccc12)C(=O)N[C@@H](CCCCN)C(=O)N[C@@H](Cc1c[nH]c2ccccc12)C(=O)N[C@@H](CCCCN)C(=O)N[C@@H](Cc1c[nH]c2ccccc12)C(N)=O (H-WKWKWKCTKSGCKWKWKW-NH2)
- MIC (Staphylococcus aureus [1]): 4 mg/L (≈ 1.61 µM)
- MIC (Staphylococcus aureus [2]): 4 mg/L (≈ 1.61 µM)
- MIC [3]: 4 mg/L (≈ 1.61 µM)
- MIC (Enterococcus faecalis): 2 mg/L (≈ 0.805 µM)
- MIC (Escherichia coli): 4 mg/L (≈ 1.61 µM)
- MIC (Salmonella paratyphi): 4 mg/L (≈ 1.61 µM)
- MIC [4]: 1 mg/L (≈ 0.403 µM)
- MIC [5]: 4 mg/L (≈ 1.61 µM)
- MIC [6]: 0.5 mg/L (≈ 0.201 µM)
- MIC [7]: 16 mg/L (≈ 6.44 µM)
- MIC (Salmonella enteritidis): 16 mg/L (≈ 6.44 µM)
- MIC [8]: 4 mg/L (≈ 1.61 µM)
- MIC (Salmonella typhimurium [9]): 32 mg/L (≈ 12.9 µM)
- MIC (Salmonella typhimurium [10]): 4 mg/L (≈ 1.61 µM)
- MIC [11]: > 128 mg/L
- MIC [12]: 8 mg/L (≈ 3.22 µM)
- MIC (Salmonella typhimurium [13]): 32 mg/L (≈ 12.9 µM)
- MIC (Candida albicans): 32 mg/L (≈ 12.9 µM)
- MHC (Erythrocyte): 32 µg/mL
- MIC (Salmonella typhimurium [14]): > 128 mg/L
- MIC (Salmonella typhimurium [15]): > 128 mg/L
- MIC (Salmonella typhimurium [16]): > 128 mg/L
- MIC (Salmonella typhimurium [17]): > 128 mg/L
- MIC (Salmonella typhimurium [18]): > 128 mg/L
- MIC (Salmonella typhimurium [19]): > 128 mg/L
- MIC (Salmonella typhimurium [20]): 64 mg/L (≈ 25.8 µM)
- MIC (Salmonella typhimurium [21]): 128 mg/L (≈ 51.5 µM)
- hemolysis at 1 h, 128 ug/ml [22]: 30.8%
- viability at 24 h, 128 ug/ml [23]: 36.6%
- Activity (Salmonella typhimurium [24]): Tde
- Activity (Salmonella typhimurium [25]): Dose-Dependent Effect
- Activity (Lipopolysaccharide (LPS)): Dose-Dependent Effect
- inhibition (RAW264.7 [26]): Dose-Dependent Effect
- inhibition (RAW264.7 [27]): Active
- inhibition (RAW264.7 [28]): Active
- inhibition (RAW264.7 [29]): Active
- Activity (Cell membrane): Active

Compound: CN[C@@H]1[C@H](O[C@H]2[C@H](O[C@H]3[C@H](O)[C@@H](O)[C@H](N=C(N)N)[C@@H](O)[C@@H]3N=C(N)N)O[C@@H](C)[C@]2(O)C=O)O[C@@H](CO)[C@H](O)[C@H]1O [STREPTOMYCIN]
- MIC (Staphylococcus aureus [1]): 4 mg/L (≈ 6.88 µM)
- MIC (Staphylococcus aureus [2]): 8 mg/L (≈ 13.8 µM)
- MIC [3]: 0.25 mg/L (≈ 0.43 µM)
- MIC (Enterococcus faecalis): 64 mg/L (≈ 110 µM)
- MIC (Escherichia coli): 64 mg/L (≈ 110 µM)
- MIC (Salmonella paratyphi): 32 mg/L (≈ 55 µM)
- MIC [4]: 32 mg/L (≈ 55 µM)
- MIC [5]: 64 mg/L (≈ 110 µM)
- MIC [6]: 64 mg/L (≈ 110 µM)
- MIC [7]: 32 mg/L (≈ 55 µM)
- MIC (Salmonella enteritidis): 16 mg/L (≈ 27.5 µM)
- MIC [8]: 2 mg/L (≈ 3.44 µM)
- MIC (Salmonella typhimurium [9]): 32 mg/L (≈ 55 µM)
- MIC (Salmonella typhimurium [10]): 64 mg/L (≈ 110 µM)
- MIC [11]: > 128 mg/L
- MIC [12]: 128 mg/L (≈ 220 µM)
- MIC (Salmonella typhimurium [13]): 128 mg/L (≈ 220 µM)
- MIC (Candida albicans): 128 mg/L (≈ 220 µM)
- Activity (Salmonella typhimurium [30]): Active
